From US20240043439A1, “COMPOUNDS AS C5AR INHIBITORS” (Kira Pharmaceuticals (Suzhou) Ltd., priority 2020, published 2024)

Legend:
C5aR [1] = target: T1, C5aR (Homo sapiens (Human), UniProt P21730); test: Inhibition of C5a-C5aR binding determined by cell migration assay (U937/C5aR cells); format: cell-based; conditions: U937/C5aR cell migration towards human C5a, 180 min
In short: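 Transwell migration through 3.0 µm pores: U937/C5aR cells in HBSS + 1% FBS were premixed with compound, with human C5a plus compound in the bottom well. After 30 min preincubation, cells migrated 180 min at 37 °C. Migrated cells were quantified by CellTiter-Glo luminescence.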

[2] = tested on: human C5a induced neutropenia; test: C5a induced neutropenia in human C5aR knock-in mice model; format: in vivo; conditions: 0.3 mg/kg and 3 mg/kg, pre-dosed 2 hours before hC5a
Experimental: To study the efficacy of compounds in an animal model, human C5aR knock-in mice were created by replacing the coding region of mouse C5aR with human C5aR coding sequence. Intravenous injection of hC5a induced upregulation of adhesion molecules on blood vessel walls, leading to decreased neutrophils in the blood stream and attached to the vascular walls. Human C5aR knock-in mice were pre-dosed with vehicle or specific compound, and 2 hours later, human C5a ([…], ACROBiosystems) was administrated and 1 minute later neutrophils are quantified in peripheral blood.
(§1) The percent change in the number of neutrophils in the blood collected after C5a injection (121 min), relative to the sample collected prior to C5a injection (119 min). The plasma concentration of each compound is the average concentration prior to C5a injection of 3 individual mice.

[3] = tested on: human C5a (hC5a) induced neutropenia; test: C5a induced neutropenia in a cynomolgus model; format: in vivo; conditions: cynomolgus monkey, pre-dosed 4 hours before hC5a, compared to vehicle
Experimental: To study the efficacy of compounds in a non-human primate model, human C5a (hC5a) induced neutropenia is studied in a cynomolgus model. Intravenous injection of hC5a induced upregulation of adhesion molecules on blood vessel walls, leading to decreased neutrophils in the blood stream and attached to the vascular walls. Monkeys were pre-dosed with vehicle or specific compound, and 4 hours later, hC5a ([…], ACROBiosystems) was administrated and 1 minute later neutrophils are quantified in peripheral blood.
as §1, with “(241 min) was calculated” for “(121 min),”, “(239” for “(119”, “was calculated as” for “is”, “2” for “3”, “monkeys.” for “mice.”

[4] = tested on: C5a induced CD11b upregulation on granulocytes; test: Neutrophil CD11b FACS assay, cyno monkey whole blood after oral pre-dosing; format: in vivo; conditions: oral pre-dosing at 10 mg/kg
Experimental: (§2) Peripheral blood samples were collected from Cynomolgus monkey/huC5aR knock-in mice at indicated timepoints. 100 μl aliquots were mixed with a range of C5a concentrations and incubated at 37° C. for 30 min. Blood was cooled down on wet ice for at least 3 min, anti-CD11b monoclonal antibody (BD Biosciences) was added and incubated at 4° C. for 60 min. Red blood cells were lysed by adding erythrocyte lysis buffer (Solarbio) and incubated on ice for 10 min, white blood cells were washed by pre-cold PBS twice and suspended by 2% PFA/PBS buffer. Neutrophils were classified with flow cytometry by their forward/side-scatter properties and mean fluorescence intensity of anti-CD11b staining on cells was read by FACS (Beckman).
The percent of CD11b signal was calculated by the formula %=(MFI[C5a conc.]-MFI[C5a=0])/(MFI[max]-MFI[C5a=0])×100%. Each data point was the average of 2 individual monkeys. The plasma concentration of each compound is the average concentration prior to C5a injection of 2 individual monkeys.

[5] = tested on: C5a induced CD11b upregulation on neutrophil; test: Neutrophil CD11b FACS assay, human C5aR knock-in mice whole blood after oral pre-dosing; format: in vivo; conditions: oral pre-dosing 0.3 mg/kg and 3 mg/kg
Experimental: as §2
(§3) Whole blood was collected at indicated timepoints (2 hours or 12 hours after dosing compound) and further stimulated with human C5a in vitro. CD11b FACS antibody was added and incubate for 60 min at 4 C before red blood cells were lysed. The percent of CD11b signal was calculated by the formula %=(MFI[C5a conc.]-MFI[C5a=0])/(MFI[max]-MFI[C5a=0])×100%. Each data point was the average SD of 3 individual mice.
as §3, with “2 hrs” for “indicated timepoints (2 hours or 12 hours”, “compound” for “compound)”, “average” for “average SD”, “2” for “3”
as §3, with “2 hrs” for “indicated timepoints (2 hours or 12 hours”, “compound” for “compound)”, “average±SD” for “average SD”, “2” for “3”

C5aR [6] = target: T1, C5aR; test: Calcium mobilization (U937/C5aR or HEK293/C5aR cells, FLIPR); format: cell-based; conditions: agonist human C5a at EC80, FLIPR
In short: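 U937 or HEK293 cells expressing human C5aR, plated overnight, then preincubated 60 min with compound. After Fluo-4 Direct dye loading (50 min at 37 °C, 10 min at room temperature), intracellular calcium rise on FLIPR was triggered by human C5a agonist at EC80.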

[7] = target: human C5a receptor (C5aR) (Homo sapiens (Human), UniProt P21730); test: Inhibition of C5a-C5aR binding (biotinylated human C5a, U937/C5aR cells, FACS)
Chain of human C5a receptor (C5aR) (P21730 whole entry): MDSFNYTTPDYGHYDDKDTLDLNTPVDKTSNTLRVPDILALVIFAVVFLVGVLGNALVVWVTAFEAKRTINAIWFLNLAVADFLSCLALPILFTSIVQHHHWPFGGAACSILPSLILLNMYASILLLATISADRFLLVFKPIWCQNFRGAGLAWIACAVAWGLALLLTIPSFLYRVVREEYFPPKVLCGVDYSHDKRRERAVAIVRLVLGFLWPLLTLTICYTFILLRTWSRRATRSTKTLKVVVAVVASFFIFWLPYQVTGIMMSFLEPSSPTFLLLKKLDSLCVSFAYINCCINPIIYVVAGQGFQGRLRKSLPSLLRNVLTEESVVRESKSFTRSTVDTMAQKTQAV
In short: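 U937 cells stably expressing human C5aR, 3×10^6 cells/ml in PBS+0.1% BSA, were co-incubated with compound and biotinylated human C5a (30 nM, working solution) on ice for 120 min. Bound ligand was stained with FITC-streptavidin for 30 min on ice and read by flow cytometry.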

T1 sequence (P21730 whole entry): as above

Cc1cccc(F)c1C(=O)N1[C@@H]2CCC[C@@H]2C[C@H](C(=O)Nc2ccc3c(cnn3C)c2)[C@@H]1c1ccc(NC2CCCC2)cc1 [Compound 49, (2R,3S,4aR,7aR)-2-(4-(cyclopentylamino)phenyl)-1-(2-fluoro-6-methylbenzoyl)-N-(1-methyl-1H-indazol-5-yl)octahydro-1H-cyclopenta[b]pyridine-3-carboxamide]
IC50 (C5aR [1]): < 50 nM | rescue of neutropenia induced by human C5a [2]: effectively rescued the neutropenia | rescue of neutropenia induced by human C5a [3]: effectively rescued the neutropenia | EC50 at 10 mg/kg ([4]; Macaca fascicularis, Neutrophil, read-out: EC50 (C5a induced CD11b upregulation on granulocytes ex-vivo)): 256 nM | C5a induced CD11b upregulation on granulocytes ex-vivo [4]: blocked | CD11b upregulation on neutrophil ([5]; 2 hours after dosing): blocked | CD11b upregulation on neutrophil ([5]; 2 hours and 12 hours post-dosing): blocked | IC50 (C5aR [6]): 500 to 2000 nM | IC50 [7]: < 50 nM
